Values of other authors, collected in US20250228771A1, “ALKALINE INTRAORAL PRODUCTS” (priority 2022, published 2025).

Conditions: Tomar S. L. et al., Tobacco Control 1997

For CN1CCCC1c1cccnc1 (stereo not shown) [nicotine], which “lower pKa” value is on record?
Its value is “about 3.2”.
